{"source": "paper PMC6934184", "about": "“Selective DNA-PKcs inhibition extends the therapeutic index of localized radiotherapy and chemotherapy” (The Journal of Clinical Investigation, 2019)", "target": "T1, JAK2 (Homo sapiens, UniProt O60674)", "T1 construct": "purchased Thermo Fisher Scientific (Life Technologies) SelectScreen", "T1 sequence (O60674 whole entry)": "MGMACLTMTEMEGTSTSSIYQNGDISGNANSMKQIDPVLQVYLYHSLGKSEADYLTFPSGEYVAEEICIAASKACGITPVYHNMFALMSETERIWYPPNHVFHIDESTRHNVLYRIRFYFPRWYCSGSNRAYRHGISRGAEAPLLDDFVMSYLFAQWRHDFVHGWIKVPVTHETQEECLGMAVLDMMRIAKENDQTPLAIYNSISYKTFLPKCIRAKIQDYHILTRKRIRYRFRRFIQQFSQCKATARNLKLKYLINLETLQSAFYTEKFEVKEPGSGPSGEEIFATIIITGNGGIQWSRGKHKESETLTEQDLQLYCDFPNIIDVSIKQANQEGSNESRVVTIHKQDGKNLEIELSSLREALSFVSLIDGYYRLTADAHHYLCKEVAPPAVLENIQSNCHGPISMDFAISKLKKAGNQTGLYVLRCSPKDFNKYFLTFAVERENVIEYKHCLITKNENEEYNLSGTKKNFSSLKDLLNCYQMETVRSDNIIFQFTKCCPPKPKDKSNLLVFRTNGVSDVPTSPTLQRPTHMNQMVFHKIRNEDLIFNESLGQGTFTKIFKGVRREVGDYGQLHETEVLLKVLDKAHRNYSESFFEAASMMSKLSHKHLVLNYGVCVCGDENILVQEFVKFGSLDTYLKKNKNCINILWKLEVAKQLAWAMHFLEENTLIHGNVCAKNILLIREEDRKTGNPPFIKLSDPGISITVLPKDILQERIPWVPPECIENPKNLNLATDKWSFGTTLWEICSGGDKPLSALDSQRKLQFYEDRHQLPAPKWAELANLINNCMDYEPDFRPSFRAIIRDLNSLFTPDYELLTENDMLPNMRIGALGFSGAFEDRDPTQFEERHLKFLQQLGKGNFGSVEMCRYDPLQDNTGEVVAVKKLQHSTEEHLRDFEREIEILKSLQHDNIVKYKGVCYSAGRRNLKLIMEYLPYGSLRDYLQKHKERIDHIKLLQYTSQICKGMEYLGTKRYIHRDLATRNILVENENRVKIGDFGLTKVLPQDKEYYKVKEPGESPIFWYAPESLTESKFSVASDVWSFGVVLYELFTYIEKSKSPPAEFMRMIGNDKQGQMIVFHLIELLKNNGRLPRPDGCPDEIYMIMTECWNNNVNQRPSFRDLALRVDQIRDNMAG", "assay": "SelectScreen Z'LYTE", "assay_type": "biochemical", "how_it_was_run": "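SelectScreen broad panel; activity (Z'LYTE, Adapta) plus binding formats. ATP: Km app for CSF1R Z'LYTE; 10 for CAMK1 Adapta. Readout = % per kinase.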", "data": [{"smiles": "CN(C(=O)CN1CCOCC1)c1ccc2sc3c(-c4cccc5c(=O)cc(N6CC7CCC(C6)O7)oc45)cccc3c2c1", "note": "[NU5455]", "values": [{"measurement": "inhibition at 1 µM", "result": 2.5, "unit": "%"}]}]}
